Where “and” joins values, the source holds several entries; their conditions need not be identical. Equal values may be shown once. Read-outs that look alike come from different tables or passages of the source.
Key:
[1] = molecular target: T1, human recombinant adrenergic α2A receptor (Homo sapiens, UniProt P08913); assay: Radioligand binding, adrenergic α2A ([3H]MK-912); conditions: for Percentage inhibition of ligand binding, Adrenergic α2A (0.1 μM) / Percentage inhibition of ligand binding, Adrenergic α2A: compound at 0.1 μM, 0.1 µM; for Percentage inhibition of ligand binding, Adrenergic α2A: repeat assays, each datapoint shown
T1 construct: expressed in transfected cells; host or cells: insect Sf9 cells
T1 sequence (P08913 1-465): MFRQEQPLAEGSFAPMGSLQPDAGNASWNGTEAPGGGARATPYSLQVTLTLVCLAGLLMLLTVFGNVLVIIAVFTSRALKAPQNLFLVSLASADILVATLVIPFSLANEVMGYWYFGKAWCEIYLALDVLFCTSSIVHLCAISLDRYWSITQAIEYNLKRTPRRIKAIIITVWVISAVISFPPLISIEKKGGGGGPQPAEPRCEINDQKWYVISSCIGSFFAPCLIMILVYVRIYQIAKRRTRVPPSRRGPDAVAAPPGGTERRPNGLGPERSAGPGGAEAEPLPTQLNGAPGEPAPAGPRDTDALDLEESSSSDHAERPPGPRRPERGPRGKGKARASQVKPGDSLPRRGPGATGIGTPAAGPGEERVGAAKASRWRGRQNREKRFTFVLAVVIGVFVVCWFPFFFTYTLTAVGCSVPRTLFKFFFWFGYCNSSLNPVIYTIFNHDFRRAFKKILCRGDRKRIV
Method in brief: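 Sf9-expressed receptor was incubated with compound for 60 min at 25 °C in modified Tris-HCl buffer, pH 7.4. Nonspecific binding was taken as that remaining with 10 μM WB-4101.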

[2] = molecular target: T2, rat adrenergic α1B receptor (Rattus norvegicus, UniProt P15823); assay: Radioligand binding, adrenergic α1B ([3H]Prazosin); conditions: for Percentage inhibition of ligand binding, Adrenergic α1B (0.1 μM) / Percentage inhibition of ligand binding, Adrenergic α1B: 0.1 µM
T2 construct: rat adrenergic α1B receptor obtained from Wistar Rat liver; from tissue; host or cells: Wistar rat liver
T2 sequence (P15823 1-515): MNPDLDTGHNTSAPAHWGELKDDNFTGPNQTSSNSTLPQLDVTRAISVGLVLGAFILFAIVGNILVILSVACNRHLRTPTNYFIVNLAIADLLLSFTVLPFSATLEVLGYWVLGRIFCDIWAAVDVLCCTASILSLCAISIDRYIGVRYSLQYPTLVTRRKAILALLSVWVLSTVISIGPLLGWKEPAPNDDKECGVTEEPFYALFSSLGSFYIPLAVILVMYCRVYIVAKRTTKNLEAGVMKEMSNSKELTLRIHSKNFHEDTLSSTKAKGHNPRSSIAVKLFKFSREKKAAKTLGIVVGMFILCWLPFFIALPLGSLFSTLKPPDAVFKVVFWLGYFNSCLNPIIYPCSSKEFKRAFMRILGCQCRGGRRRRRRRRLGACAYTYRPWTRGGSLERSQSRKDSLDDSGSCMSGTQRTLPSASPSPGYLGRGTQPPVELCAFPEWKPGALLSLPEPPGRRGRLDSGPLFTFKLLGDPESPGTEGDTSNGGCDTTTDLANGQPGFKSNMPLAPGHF
Method in brief: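 Filter binding with Wistar rat liver α1B preparation: test compound plus 0.25 nM [3H]prazosin, 1 h at 25° C in modified Tris-HCl buffer pH 7.4.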

[3] = molecular target: T3, human recombinant adrenergic α2B receptor (Homo sapiens, UniProt P18089); assay: Radioligand binding, adrenergic α2B ([3H]Rauwolscine); conditions: for Percentage inhibition of ligand binding, Adrenergic α2B (0.03 μM) / Percentage inhibition of ligand binding, Adrenergic α2B: 0.03 µM
T3 construct: expressed in transfected cells; host or cells: CHO-K1
T3 sequence (P18089 1-450): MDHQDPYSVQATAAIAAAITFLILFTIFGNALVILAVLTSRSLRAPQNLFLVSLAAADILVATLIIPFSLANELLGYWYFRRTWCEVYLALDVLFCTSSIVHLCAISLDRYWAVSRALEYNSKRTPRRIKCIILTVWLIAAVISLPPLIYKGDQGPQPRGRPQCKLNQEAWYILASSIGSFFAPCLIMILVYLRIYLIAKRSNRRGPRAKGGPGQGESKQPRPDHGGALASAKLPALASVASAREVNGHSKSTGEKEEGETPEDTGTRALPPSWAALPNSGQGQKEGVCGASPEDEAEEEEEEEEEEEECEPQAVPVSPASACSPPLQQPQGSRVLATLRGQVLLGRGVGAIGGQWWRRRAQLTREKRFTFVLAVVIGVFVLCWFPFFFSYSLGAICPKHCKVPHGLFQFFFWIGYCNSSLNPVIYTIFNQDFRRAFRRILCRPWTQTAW
Method in brief: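 Assay used CHO-K1-expressed human α2B receptor in Tris-HCl pH 7.4 buffer with MgCl2, EDTA and BSA; 60 min incubation at 25 °C.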

[4] = [3H]MK-912, repeat datapoints each shown
[5] = compound at 0.1 μM, [3H]Prazosin, repeat datapoints each shown
[6] = compound at 0.03 μM, [3H]Rauwolscine, repeat datapoints each shown
[7] = read-out: Percentage inhibition of ligand binding, Adrenergic α2A (0.1 μM), compound at 0.1 μM, [3H]MK-912, repeat datapoints each shown
[8] = read-out: Percentage inhibition of ligand binding, Adrenergic α1B (0.1 μM), compound at 0.1 μM, [3H]Prazosin, repeat datapoints each shown
[9] = read-out: Percentage inhibition of ligand binding, Adrenergic α2B (0.03 μM), compound at 0.03 μM, [3H]Rauwolscine, repeat datapoints each shown
[10] = compound at 0.1 μM, [3H]Prazosin, repeat assays, each datapoint shown, read-out: Percentage inhibition of ligand binding, Adrenergic α1B
[11] = compound at 0.03 μM, [3H]Rauwolscine, repeat assays, each datapoint shown, read-out: Percentage inhibition of ligand binding, Adrenergic α2B
[12] = compound at 0.1 μM, [3H]Prazosin, repeat assays, each datapoint shown
[13] = compound at 0.03 μM, [3H]Rauwolscine, repeat assays, each datapoint shown

Percentage inhibition of ligand binding, Adrenergic α2A (0.1 μM) [1, 4] [%] | Percentage inhibition of ligand binding, Adrenergic α1B (0.1 μM) [2, 5] [%] | Percentage inhibition of ligand binding, Adrenergic α2B (0.03 μM) [3, 6] [%] | inhibition at 0.1 µM [1, 7] [%] | Percentage inhibition of ligand binding, Adrenergic α2A ([1]; [3H]MK-912) [%] | Structure (SMILES) | other results
53 | 90 | 104 |  |  | Cc1cnc2c(c1)c1c(n2CC(C)(O)c2ccc(F)cc2)CCN2CCCC12 (single isomer, unassigned) [II-149a, 2-(4-fluoro-phenyl)-1-(9-methyl-1,2,3,4,5,10c-hexahydro-3a,6,7-triazacyclopenta[c]fluoren-6-yl)-propan-2-ol] | 
 |  |  | 6 |  | Cc1cnc2c(c1)c1c(n2CC(O)c2ccc(C#N)cc2)CCN(C)C1 (centres unmarked) [compound 145] | inhibition at 0.1 µM [2, 8]: 49%; inhibition at 0.03 µM [3, 9]: 61%
 |  |  |  |  | CCCCCCC(=O)OC(Cn1c2c(c3cc(C)ccc31)CN(C)CC2)c1ccncc1 (centres unmarked) [compound 338, heptanoic acid 2-(2,8-dimethyl-1,2,3,4-tetrahydro-pyrido[4,3-b]indol-5-yl)-1-pyridin-4-yl-ethyl ester] | inhibition at 0.1 µM ([1]; 0.1 μM compound, read-out: Percentage inhibition of ligand binding, Adrenergic α2A): 60%; inhibition at 0.1 µM ([2]; 0.1 μM compound, read-out: Percentage inhibition of ligand binding, Adrenergic α1B): 16%; inhibition at 0.03 µM ([3]; 0.03 μM compound, read-out: Percentage inhibition of ligand binding, Adrenergic α2B): 102%
13 | 19 | 87 |  |  | CC(O)(Cn1c2c(c3cc(Cl)cnc31)C1CCCN1CC2)c1cccnc1 (single isomer, unassigned) [IV-210d] | 
 |  |  |  | 1 | CC(=O)c1ccc2c(c1)c1c(n2CC(O)c2ccncc2)CCN(C)C1 (single isomer, unassigned) [49a, 1-(2,3,4,5-tetrahydro-5-(2-hydroxy-2-(pyridin-4-yl)ethyl)-2-methyl-1H-pyrido[4,3-b]indol-8-yl)ethanone] | inhibition at 0.1 µM [2, 10]: 4%; inhibition at 0.03 µM [3, 11]: 18%
 |  |  |  | 19 | CN1Cc2c(n(CC(O)c3ccncc3)c3ncccc23)C(C)(C)C1 (centres unmarked) [compound 17, 1-pyridin-4-yl-2-(6,8,8-trimethyl-5,6,7,8-tetrahydro-1,6,9-triaza-fluoren-9-yl)-ethanol] | inhibition at 0.1 µM [2, 10]: 18%; inhibition at 0.03 µM [3, 11]: 37%
 |  |  | 98 |  | C/C(=C\n1c2c(c3cc(C)ccc31)C1CCCN1CC2)c1ccc(F)cc1 (centres unmarked) [194a, 7-(2-(4-fluorophenyl)prop-1-enyl)-10-methyl-2,3,5,6,7,11c-hexahydro-1H-indolizino[7,8-b]indole] | inhibition at 0.1 µM [2, 8]: 100%; inhibition at 0.03 µM [3, 9]: 106%
 | 54 | 34 | 16 |  | Cc1cnc2c(c1)c1c(n2CC(O)c2ccc(F)cc2)CCN(C)C1 (single isomer, unassigned) [136a] | 
 |  |  |  | −4 | Cc1ccc2c(c1)c1c(n2CC(O)c2cccnc2)CCNC1 (centres unmarked) [compound 9, 2-(8-methyl-1,2,3,4-tetrahydro-pyrido[4,3-b]indol-5-yl)-1-pyridin-3-yl-ethanol] | Percentage inhibition of ligand binding, Adrenergic α1B [2, 12]: 5%; Percentage inhibition of ligand binding, Adrenergic α2B [3, 13]: 36%
 |  |  | 13 |  | Cc1ccc2c(c1)c1c(n2CC(O)c2ccncc2C)CCN(C)C1 (centres unmarked) [133a] | inhibition at 0.1 µM [2, 8]: 57%; inhibition at 0.03 µM [3, 9]: 52%
11 | 13 | 78 |  |  | Cc1ccc2c(c1)c1c(n2CC(C)(O)c2cccnc2)C(O)CN(C)C1 (single isomer, unassigned) [II-151b] | 
3 | 33 | 72 |  |  | Cc1ccc2c(c1)c1c(n2CC(OC(=O)c2ccncc2)c2ccncc2)CCN(C)C1 (single isomer, unassigned) [147a, isonicotinic acid 2-(2,8-dimethyl-1,2,3,4-tetrahydro-pyrido[4,3-b]indol-5-yl)-1-pyridin-4-yl-ethylester] | 
 |  |  |  | 12 | Cc1cnc2c(c1)c1c(n2CC(C)(O)c2cccnc2)CCN2CCCC12 (single isomer, unassigned) [26b] | Percentage inhibition of ligand binding, Adrenergic α1B [2, 12]: 15%; Percentage inhibition of ligand binding, Adrenergic α2B [3, 13]: 75% and 88%; inhibition at 0.1 µM ([3]; compound at 0.1 μM, [3H]Rauwolscine, repeat assays, each datapoint shown, read-out: Percentage inhibition of ligand binding, Adrenergic α2B): 100%; Ki ([3]; read-out: Ki α2B): 3.06 nM
 |  |  |  | 7 | Cc1ccc2c(c1)c1c(n2CC(O)c2cc[n+]([O-])cc2)CCN(C)C1 (centres unmarked) [69b] | Percentage inhibition of ligand binding, Adrenergic α1B [2, 12]: 8%; Percentage inhibition of ligand binding, Adrenergic α2B [3, 13]: 19%
 |  |  |  | 71 | Cc1ccc2c(c1)c1c(n2CC(C)(O)c2ccc(F)cc2)CCN(C)C1 (single isomer, unassigned) [90a] | Percentage inhibition of ligand binding, Adrenergic α1B [2, 12]: 74%; inhibition at 0.03 µM [3, 11]: 97%
57 | 95 | 98 |  |  | Cc1ccc2c(c1)c1c(n2CC(OC(=O)CCC(=O)O)c2ccncc2)CCN2CCCC12 (single isomer, unassigned) [V-18b, 4-(2-(10-methyl-2,3,5,6-tetrahydro-1H-indolizino[7,8-b]indol-7(11cH)-yl)-1-(pyridin-4-yl)ethoxy)-4-oxobutanoic acid] | 
6 | 23 | 30 |  |  | Cc1ccc(CCn2c3c(c4cc(Cl)cnc42)C2CCCN2CC3)cn1 (single isomer, unassigned) [137b] | 
 |  |  | 74 |  | CN1CCc2c(c3cc(Cl)ccc3n2CCc2ccc(F)cc2)C1 [compound 217] | inhibition at 0.1 µM [2, 8]: 62%; inhibition at 0.1 µM ([3]; read-out: Percentage inhibition of ligand binding, Adrenergic α2B (0.1 μM), compound at 0.1 μM, [3H]Rauwolscine, repeat datapoints each shown): 102%
 |  |  | 10 |  | Cc1ccc2c(c1)c1c(n2CC(CN)c2ccncc2)CCN(C)C1 (centres unmarked) [II-221] | inhibition at 0.1 µM [2, 8]: -1%; inhibition at 0.03 µM [3, 9]: 0%
